Measurements taken from patent US20260137697A1, “THIAZOLO[5,4-D]PYRIMIDINE COMPOUNDS, COMPOSITIONS COMPRISING THEM AND USES THEREOF” (University de Montreal, priority 2022, published 2026).
Like-named read-outs stand apart in the source and are kept apart here.

System: SW480 cells
Experiment: Proliferation inhibition, CellTiter-Glo, SW480
Type: cell-based, human
Conditions: Table D-2, SW480 (KRAS G12D), 3 days, read-out: Prolif. (proliferation EC50)
Description: All cancer cell lines (A375, A101D, A2058, RKO, HT29 SK-MEL 30, IPC298, HepG2, HCT-116, Lovo, SW620, SW480, NCI-H358, NCI-H2122, Calu-6, NCIH2087, NCIH1755, NCIH1666 and Mewo) were obtained from ATCC and cultured in RPM1-1640 medium (Gibco) supplemented with 5% heat inactivated fetal bovine serum (FBS, Wisent) at 37° C. under 5% CO2. Cells were maintained in T175 flasks (Greiner). They were passaged by removing the culture medium, washing once in 10 mL of room temperature Phosphate Buffered Saline (PBS; Wisent) and incubating at 37° C. with 2 mL of 0.05% Trypsin (Thermo-Fisher). Trypsin was then inactivated by adding complete growth medium and the cells were then replated in a T175 culture dish at the appropriate dilution. All cell lines were routinely tested for mycoplasma contamination. Tissue type and mutational status of each cell line can be found in Table B.
CellTiter-Glo® viability analysis was conducted on cells plated in 100 μL of complete RPMI-1640 growth medium in 96-well flat-bottomed white opaque plates (Greiner or Croning) at a density indicated in Table E (for each CCL, number of cells plated per well of a 96-well plate to perform the CellTiter-Glo® cell viability assay). The cell density in cells/cm^2 would correspond to cell number divided by the area of one well of a 96-well plate (0.32 cm^2). […]
After 3 days of incubation, the growth media were removed by aspiration and 60 μL of diluted CellTiter-Glo® reagent (10 μL CellTiter-Glo® reagent+50 μL of PBS) was added to each well. […] Luminescence signals were then acquired on a Synergy Neo2 plate reader (Biotek).
The effect of each compound dilution on the proliferation of cancer cell lines was expressed in % inhibition and calculated as follows. […]
The ability of each compound to inhibit proliferation was expressed as a EC50 value obtained by plotting the effect values for each data point of a dilution series and fitting the obtained curves using a log(agonist) versus response—variable slope (four parameters) function using GraphPadPrism (V7.0) or Dotmatics Screening Ultra platform.

Molecule `N#CC1(c2cccc3c2ncn3-c2nc3c(Nc4c(F)ccc(NS(=O)(=O)c5cccc(Cl)c5Cl)c4F)ncnc3s2)CC1` [Example 122] has an EC50 of less than 0.3 µM.
`Cc1ccc2c(Nc3cccc(Cl)c3F)nccc2c1NC(=O)c1csc2c(N)ncnc12` [Belvarafenib, reference compound] gave an EC50 (Homo sapiens, 72 h) of 0.3 to 3 µM.
`Cc1c(F)cccc1S(=O)(=O)Nc1ccc(F)c(Nc2ncnc3sc(-n4cc(C(=O)N5C6CCC5CN(C)C6)c5ccccc54)nc23)c1F` [Example 44] was tested, and the EC50 was less than 0.3 µM.
